Measured values reported in patent publication US7235679B2, “Crystals of a vitamin D derivative and a method for the preparation thereof” (Chugai Seiyaku Kabushiki Kaisha, priority 1996, dated 2007).

What was measured:
[1] = Stability test of ED-71: purity measurement using normal phase HPLC; format: physicochemical; settings: 265 nm
Description: (§1) Amorphous and crystalline ED-71 compounds were tested for stability at 10, 25 and […]. To estimate the stability, HPLC quantitative assay and absorbance and purity measurements were utilized. The purity was expressed as peak area ratio in percentage in HPLC (% P.A.R.). The test was carried out by using the following procedures:
(§2) About 2 mg portions of each of the amorphous and crystalline samples are precisely weighed into transparent 10 ml test tubes each having screw cap, individually.
(§3) The test tubes are purged with argon using a vacuum desiccator and a glove box. This purging procedure is not applied to the test tubes indicated as “1 M (air)” in the tables below.
(§4) The test tubes in groups are fixed in thermostatic baths which are respectively controlled at the above temperatures and allowed to stand in the dark. After one (1 W) or two (2 W) weeks or one month (1 M), the test tubes are removed from the baths and subjected to the following assay and measurements:
1 ml of the sample solution as prepared in “HPLC quantitative assay” above is dried in vacuo to remove the solvent (absolute ethanol). The residue is dissolved in 1 ml of methylene chloride. HPLC assay is carried out using 25 μl of this solution. • HPLC conditions used: • Column: YMC A-004SIL (4.6×300 mm) • Mobile phase: methylene chloride/methanol mixture (96/4) • Flow rate: 1.8 ml/min • Detection: at UV 265 nm.

[2] = Stability of ED-71 crystalline compound, overall conclusion; format: physicochemical; settings: up to 2 weeks at 25° C. and 40° C.
Description: as §1, §2, §3, §4
The values of the HPLC quantitative assay and the purity measurement are averaged over two runs.

| SMILES | Purity Measurement Using Normal Phase HPLC, ED-71 peak ([1]; 10° C., 1 M (air), dark) [% P.A.R] | Purity Measurement Using Normal Phase HPLC, Other peaks ([1]; 10° C., 1 M (air), dark) [% P.A.R] | Purity Measurement Using Normal Phase HPLC, Pre Form peak ([1]; 10° C., 1 M (air), dark) [% P.A.R] | Purity Measurement Using Normal Phase HPLC, ED-71 peak ([1]; 10° C., 1 M, argon, dark) [% P.A.R] | Purity Measurement Using Normal Phase HPLC, Other peaks ([1]; 10° C., 1 M, argon, dark) [% P.A.R] | Purity Measurement Using Normal Phase HPLC, Pre Form peak ([1]; 10° C., 1 M, argon, dark) [% P.A.R] | Purity Measurement Using Normal Phase HPLC, ED-71 peak ([1]; 10° C., 2 W, argon, dark) [% P.A.R] | Purity Measurement Using Normal Phase HPLC, Other peaks ([1]; 10° C., 2 W, argon, dark) [% P.A.R] | Purity Measurement Using Normal Phase HPLC, Pre Form peak ([1]; 10° C., 2 W, argon, dark) [% P.A.R] | Purity Measurement Using Normal Phase HPLC, ED-71 peak ([1]; 10° C., time 0) [% P.A.R] | Purity Measurement Using Normal Phase HPLC, Other peaks ([1]; 10° C., time 0) [% P.A.R] | Purity Measurement Using Normal Phase HPLC, Pre Form peak ([1]; 10° C., time 0) [% P.A.R] | Purity Measurement Using Normal Phase HPLC, ED-71 peak ([1]; 25° C., 1 W, argon, dark) [% P.A.R] | Purity Measurement Using Normal Phase HPLC, Other peaks ([1]; 25° C., 1 W, argon, dark) [% P.A.R] | Purity Measurement Using Normal Phase HPLC, Pre Form peak ([1]; 25° C., 1 W, argon, dark) [% P.A.R] | Purity Measurement Using Normal Phase HPLC, ED-71 peak ([1]; 25° C., 2 W, argon, dark) [% P.A.R] | Purity Measurement Using Normal Phase HPLC, Other peaks ([1]; 25° C., 2 W, argon, dark) [% P.A.R] | Purity Measurement Using Normal Phase HPLC, Pre Form peak ([1]; 25° C., 2 W, argon, dark) [% P.A.R] | Purity Measurement Using Normal Phase HPLC, ED-71 peak ([1]; 25° C., time 0) [% P.A.R] | Purity Measurement Using Normal Phase HPLC, Other peaks ([1]; 25° C., time 0) [% P.A.R] | other results |
| --- | --- | --- | --- | --- | --- | --- | --- | --- | --- | --- | --- | --- | --- | --- | --- | --- | --- | --- | --- | --- | --- |
| C=C1/C(=C\C=C2/CCC[C@@]3(C)C2CC[C@@H]3[C@H](C)CCCC(C)(C)O)C[C@@H](O)[C@@H](OCCCO)[C@@H]1O (stereo partly drawn) [Amor., 1α,25-dihydroxy-2β-(3-hydroxypropoxy)vitamin D3] | 95.26 | 2.42 | 2.31 | 94.58 | 3.09 | 2.33 | 95.46 | 2.28 | 2.27 | 96.06 | 2.27 | 1.67 | 95.97 | 2.14 | 1.88 | 94.74 | 3.01 | 2.25 | 96.06 | 2.27 | Purity Measurement Using Normal Phase HPLC, Pre Form peak ([1]; 25° C., time 0): 1.67 % P.A.R; Purity Measurement Using Normal Phase HPLC, ED-71 peak ([1]; 40° C., 1 W, argon, dark): 94.47 % P.A.R; Purity Measurement Using Normal Phase HPLC, Other peaks ([1]; 40° C., 1 W, argon, dark): 3.00 % P.A.R; Purity Measurement Using Normal Phase HPLC, Pre Form peak ([1]; 40° C., 1 W, argon, dark): 2.53 % P.A.R; Purity Measurement Using Normal Phase HPLC, ED-71 peak ([1]; 40° C., 2 W, argon, dark): 92.12 % P.A.R; Purity Measurement Using Normal Phase HPLC, Other peaks ([1]; 40° C., 2 W, argon, dark): 4.89 % P.A.R; Purity Measurement Using Normal Phase HPLC, Pre Form peak ([1]; 40° C., 2 W, argon, dark): 2.99 % P.A.R; Purity Measurement Using Normal Phase HPLC, ED-71 peak ([1]; 40° C., time 0): 96.06 % P.A.R; Purity Measurement Using Normal Phase HPLC, Other peaks ([1]; 40° C., time 0): 2.27 % P.A.R; Purity Measurement Using Normal Phase HPLC, Pre Form peak ([1]; 40° C., time 0): 1.67 % P.A.R |
| C=C1/C(=C\C=C2/CCC[C@]3(C)[C@@H]([C@H](C)CCCC(C)(C)O)CC[C@@H]23)C[C@@H](O)[C@@H](OCCCO)[C@@H]1O [Crys., 1α,25-dihydroxy-2β-(3-hydroxypropoxy)vitamin D3] | 98.88 | 0.46 | 0.66 | 98.91 | 0.44 | 0.65 | 99.06 | 0.27 | 0.66 | 99.15 | 0.63 | 0.21 | 99.56 | 0.30 | 0.14 | 98.95 | 0.38 | 0.67 | 99.15 | 0.63 | Purity Measurement Using Normal Phase HPLC, Pre Form peak ([1]; 25° C., time 0): 0.21 % P.A.R; Purity Measurement Using Normal Phase HPLC, ED-71 peak ([1]; 40° C., 1 W, argon, dark): 99.55 % P.A.R; Purity Measurement Using Normal Phase HPLC, Other peaks ([1]; 40° C., 1 W, argon, dark): 0.31 % P.A.R; Purity Measurement Using Normal Phase HPLC, Pre Form peak ([1]; 40° C., 1 W, argon, dark): 0.14 % P.A.R; Purity Measurement Using Normal Phase HPLC, ED-71 peak ([1]; 40° C., 2 W, argon, dark): 98.92 % P.A.R; Purity Measurement Using Normal Phase HPLC, Other peaks ([1]; 40° C., 2 W, argon, dark): 0.41 % P.A.R; Purity Measurement Using Normal Phase HPLC, Pre Form peak ([1]; 40° C., 2 W, argon, dark): 0.67 % P.A.R; Purity Measurement Using Normal Phase HPLC, ED-71 peak ([1]; 40° C., time 0): 99.15 % P.A.R; Purity Measurement Using Normal Phase HPLC, Other peaks ([1]; 40° C., time 0): 0.63 % P.A.R; Purity Measurement Using Normal Phase HPLC, Pre Form peak ([1]; 40° C., time 0): 0.21 % P.A.R; stability compared with the amorphous form [2]: higher stability |
